Test results: a melting point compilation (Tetko et al.; mined from patent text by program, amines drawn as free bases though some values may be those of a salt)

Compared with `Nc1nc2ncnc(NCc3ccco3)c2[nH]1`, `CCOC(=O)Cc1nc(-c2ccccc2)oc1-c1ccoc1` is lower in melting point: 128 to 130 °C for the first, 84 to 85 °C for the second.

Compared with `Nc1cccc(-c2ccc(CCN3CCN(C(=O)Cc4ccc(Cl)cc4)CC3)cc2)n1`, `O=C(Nc1cc2ncc(CN3CCCC3)cc2cc1N1CCCC1)c1ccc(-c2ccc(F)cc2)cc1` is lower in melting point: 205 °C for the first, 182 to 184 °C for the second.

First: CC1CC(C)CN(CCNC(=O)Nc2ccccc2)C1 (stereo not given)
Second: CN(C)CCC(C(=O)O)c1cccc2ccccc12 (stereo not given)
The melting point of the first is higher: 189 to 191 °C for the first, 130 to 135 °C for the second.

First: C[C@@H](NC(=O)c1c[nH]c2ncc(-c3nn(C)c4cc(F)ccc34)nc12)C1(C#N)CCCC1
Second: CC(C)(C)C(=O)c1c[nH]c2ncc(-c3cc(OCCS(C)(=O)=O)cc(N4CCCC4)c3)nc12
The melting point of the first is higher: 300 to 315 °C for the first, 230 to 232 °C for the second.

First: COc1ccc(Cn2nc(CO)c3ccccc32)cc1
Second: COc1ccc(S(=O)(=O)c2ccc(OC)c3ccccc23)cc1
The melting point of the first is lower: 95 to 97 °C for the first, 160 to 162 °C for the second.

First: Cc1ccc2c(c1)nnn2C(=O)N1CCOCC1
Second: CC(=O)C=Cc1ccc2c(c1)OCCO2
The melting point of the first is higher: 81 to 82 °C for the first, 80 °C for the second.

First: Cc1ccc(Oc2ccccc2C#N)c(O)c1
Second: O=C(Oc1ccc(Cl)cc1[N+](=O)[O-])c1ccccc1O
The melting point of the first is lower: 118 to 119 °C for the first, 155 to 160 °C for the second.

First: CN(C)C(=O)C1=NN(c2ccccc2)C(C(N)=O)=NN1c1ccccc1
Second: CCOC(=O)c1cn(C(c2ccccc2)(c2ccccc2)c2ccccc2)nn1
The melting point of the first is higher: 243 to 244 °C for the first, 201 to 203 °C for the second.

First: CCOC(=O)c1cn(Cc2ccc(OCc3nc(-c4ccccc4)oc3C)cc2)nc1OCc1ccc(OCc2nc(-c3ccccc3)oc2C)cc1
Second: Cc1ccc(COC2C(Sc3ccccc3)OC(C)C(OC(=O)c3ccccc3)C2OC(=O)c2ccccc2)cc1 (stereo not given)
The melting point of the first is higher: 118 to 119 °C for the first, 81 to 83 °C for the second.

Compared with `Cc1cc(Oc2ccc(NC(=O)N(C)C)cc2)nc(Cl)n1`, `COC(=O)COc1ccc(Nc2cc(Nc3ccc(F)c(Cl)c3)ncn2)cc1` is higher in melting point: 176 to 178 °C for the first, 191 to 193 °C for the second.

Compared with `CCn1nc(-c2ccc(F)cc2)c(C(C)=O)c(Nc2cccc3ncccc23)c1=O`, `COC(=O)c1nn(-c2ccc(Cl)cc2Cl)c(-c2ccc(Cl)cc2)c1CF` is lower in melting point: 218 °C for the first, 114 °C for the second.

Compared with `CCOCc1nc2c(N)nc3cccnc3c2n1CCCCCC(N)=O`, `Cc1ccc(-c2noc3c(Cl)c(OCC(=O)O)ccc23)s1` is higher in melting point: 215 to 217 °C for the first, 235 to 238 °C for the second.

First: CCOC(=O)CC1(c2ccc(Cl)c(Cl)c2)CNC(=O)C1 (stereo not given)
Second: CCOC(=O)C(=O)Nc1ccc(C#N)c(C#N)c1
The melting point of the first is lower: 87 to 90 °C for the first, 194 °C for the second.

Compared with `CC1=NC(Cc2ncc(Br)cn2)C(Br)=CN1` (stereo not given), `CC(C)(C)COc1ccc([N+](=O)[O-])cc1Br` is lower in melting point: 176 °C for the first, 86 to 88 °C for the second.

First: CCC1(CCCCCl)C(=O)Nc2c(Cl)cc(Cl)cc21 (stereo not given)
Second: CCCS(=O)(=O)c1ccccc1S(=O)(=O)NC(=O)Nc1nc(Cl)cc(OC)n1
The melting point of the first is lower: 65 to 67 °C for the first, 193 to 195 °C for the second.

First: CCNC(=O)N(Cc1ccc(Cl)cc1)C1CC2CCC1C2 (stereo not given)
Second: COCN(C(=O)Cc1ccc(Cl)cc1)C(c1cncnc1C(F)(F)F)C(C)C (stereo not given)
The melting point of the first is lower: 132 to 133 °C for the first, 142 to 145 °C for the second.

First: CS(=O)(=O)c1ccc(-c2coc3ccc(-c4nnc(N)o4)cc23)cc1
Second: Cc1cc(C)n2nc(S(=O)(=O)Nc3c(Cl)cccc3Cl)c(C#N)c2n1
The melting point of the first is lower: 274 to 275 °C for the first, 280 to 285 °C for the second.

First: Cc1cc(N2CCOCC2)c2cccc(OCc3c(Cl)ccc(-n4cccc4CNC(=O)C=Cc4ccc(C(=O)O)cc4)c3Cl)c2n1
Second: Nc1ccc(C=C2c3ccccc3CCc3ccccc32)cc1
The melting point of the first is lower: 174 to 180 °C for the first, greater than 250 °C for the second.

First: COc1ccc2c(c1)CCC1C2CCC2(C)C(OC(C)=O)=CCC12 (stereo not given)
Second: COc1ccccc1C1NC(=O)C(C)S1 (stereo not given)
The melting point of the first is lower: 97 to 100 °C for the first, 187 to 188 °C for the second.

First: Nc1ccc(Cl)c(O)c1
Second: Cc1cccc(C(=O)CCl)c1O
The melting point of the first is higher: 115 to 117 °C for the first, 65 to 66 °C for the second.

First: c1ccc(-c2ccnc3ccnn23)cc1
Second: Cc1occc(=O)c1OC(=O)c1ccccc1
The melting point of the first is lower: 72 to 73 °C for the first, 106 to 110 °C for the second.

First: CC(=O)CC(=O)c1ccc2c3c(cccc13)CC2
Second: O=C1Cc2cccc(Oc3ccccc3F)c2O1
The melting point of the first is lower: 59 °C for the first, 82 to 84 °C for the second.

First: Cc1cccc2c(N3CCS(=O)CC3)nc(N3CCNCC3)cc12
Second: CC(C)(NC(=O)C1=C(C(=O)Nc2cc(OC3CCCC3)c(Cl)cc2F)CCCC1)c1cccc(F)c1
The melting point of the first is lower: 201 to 203 °C for the first, 231 to 234 °C for the second.

First: O=c1c2ccc(Cl)cc2[nH]c2c(O)nn(-c3ccc(OC(F)(F)F)cc3)c(=O)c12
Second: Brc1ccc2c(c1)C(c1ccc(Oc3ccccc3)cc1)(c1ccc(Oc3ccccc3)cc1)c1cc(Br)ccc1-2
The melting point of the first is higher: 320 to 322 °C for the first, 178 to 180 °C for the second.

Compared with `O=C(O)c1cc2c(s1)C1CCC2C1` (stereo not given), `O=C(NC1CCNC1)C12CC3CC(CC(C3)C1)C2` (stereo not given) is higher in melting point: 183 to 184 °C for the first, 186 to 188 °C for the second.
